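Tested at 5 concentrations; 48 h exposure; 96-well plates; endpoints linearly interpolated, else capped at highest concentration. At the GI50, growth is halved. At the TGI there is no net growth.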
What was measured:
Experiment in all cases: NCI-60 cell line screen, 48 h
HOP-92 NSCLC = tested on: HOP-92 NSCLC
U251 CNS = tested on: U251 CNS
MCF7 breast = tested on: MCF7 breast
LOX IMVI melanoma = tested on: LOX IMVI melanoma
SK-MEL-5 melanoma = tested on: SK-MEL-5 melanoma
HS 578T breast = tested on: HS 578T breast
HL-60(TB) leukemia = tested on: HL-60(TB) leukemia
OVCAR-4 ovarian = tested on: OVCAR-4 ovarian
RXF 393 renal = tested on: RXF 393 renal
OVCAR-3 ovarian = tested on: OVCAR-3 ovarian
UACC-257 melanoma = tested on: UACC-257 melanoma
DU-145 prostate = tested on: DU-145 prostate
SK-OV-3 ovarian = tested on: SK-OV-3 ovarian
HCC-2998 colon = tested on: HCC-2998 colon
NCI-H23 lung = tested on: NCI-H23 lung
MDA-MB-435 = tested on: MDA-MB-435
MDA-MB-231 breast = tested on: MDA-MB-231 breast
SK-MEL-28 melanoma = tested on: SK-MEL-28 melanoma
TK-10 renal = tested on: TK-10 renal
HCT-116 colon = tested on: HCT-116 colon
UO-31 renal = tested on: UO-31 renal
ACHN renal = tested on: ACHN renal
SF-268 CNS = tested on: SF-268 CNS
HT29 colon = tested on: HT29 colon
MALME-3M melanoma = tested on: MALME-3M melanoma
786-0 renal = tested on: 786-0 renal
PC-3 prostate = tested on: PC-3 prostate
KM12 colon = tested on: KM12 colon
IGROV1 ovarian = tested on: IGROV1 ovarian
M14 melanoma = tested on: M14 melanoma
SNB-75 CNS = tested on: SNB-75 CNS
T-47D breast = tested on: T-47D breast
NCI-H460 lung = tested on: NCI-H460 lung
EKVX NSCLC = tested on: EKVX NSCLC
NCI-H226 lung = tested on: NCI-H226 lung
UACC-62 melanoma = tested on: UACC-62 melanoma
HOP-62 NSCLC = tested on: HOP-62 NSCLC
SR leukemia = tested on: SR leukemia
SW-620 colon = tested on: SW-620 colon
SF-539 CNS = tested on: SF-539 CNS
SN12C renal = tested on: SN12C renal
OVCAR-8 ovarian = tested on: OVCAR-8 ovarian
NCI/ADR-RES ovarian = tested on: NCI/ADR-RES ovarian
BT-549 breast = tested on: BT-549 breast
A498 renal = tested on: A498 renal
CCRF-CEM leukemia = tested on: CCRF-CEM leukemia
A549 NSCLC = tested on: A549 NSCLC
NCI-H522 lung = tested on: NCI-H522 lung
HCT-15 colon = tested on: HCT-15 colon
SNB-19 CNS = tested on: SNB-19 CNS
OVCAR-5 ovarian = tested on: OVCAR-5 ovarian
SF-295 CNS = tested on: SF-295 CNS
MOLT-4 leukemia = tested on: MOLT-4 leukemia
SK-MEL-2 melanoma = tested on: SK-MEL-2 melanoma
RPMI-8226 leukemia = tested on: RPMI-8226 leukemia
CAKI-1 renal = tested on: CAKI-1 renal
COLO 205 colon = tested on: COLO 205 colon
K-562 leukemia = tested on: K-562 leukemia

O=C(NCCNC(=O)c1ccc(F)cc1)Nc1ccc(-n2cc(-c3ccncc3)c(-c3ccc(Cl)c(O)c3)n2)cc1
GI50 (HOP-92 NSCLC): 0.465 µM
TGI (HOP-92 NSCLC): 5.23 µM
GI50 (U251 CNS): 0.391 µM
TGI (U251 CNS): 2.64 µM
GI50 (MCF7 breast): 0.323 µM
TGI (MCF7 breast): > 100 µM
GI50 (LOX IMVI melanoma): 0.425 µM
TGI (LOX IMVI melanoma): 2.49 µM
GI50 (SK-MEL-5 melanoma): 0.28 µM
TGI (SK-MEL-5 melanoma): 1.12 µM
GI50 (HS 578T breast): 0.462 µM
TGI (HS 578T breast): > 100 µM
GI50 (HL-60(TB) leukemia): 0.273 µM
TGI (HL-60(TB) leukemia): 0.848 µM
GI50 (OVCAR-4 ovarian): 0.585 µM
TGI (OVCAR-4 ovarian): > 100 µM
GI50 (RXF 393 renal): 0.288 µM
TGI (RXF 393 renal): 3.69 µM
GI50 (OVCAR-3 ovarian): 0.326 µM
TGI (OVCAR-3 ovarian): 1.2 µM
GI50 (UACC-257 melanoma): 1.37 µM
TGI (UACC-257 melanoma): 5.89 µM
GI50 (DU-145 prostate): 0.411 µM
TGI (DU-145 prostate): > 100 µM
GI50 (SK-OV-3 ovarian): 0.746 µM
TGI (SK-OV-3 ovarian): 48.5 µM
GI50 (HCC-2998 colon): 0.597 µM
TGI (HCC-2998 colon): 2.85 µM
GI50 (NCI-H23 lung): 0.587 µM
TGI (NCI-H23 lung): 7.77 µM
GI50 (MDA-MB-435): 0.189 µM
TGI (MDA-MB-435): 0.577 µM
GI50 (MDA-MB-231 breast): 0.438 µM
TGI (MDA-MB-231 breast): 2.26 µM
GI50 (SK-MEL-28 melanoma): 1.38 µM
TGI (SK-MEL-28 melanoma): > 100 µM
GI50 (TK-10 renal): 2.49 µM
GI50 (HCT-116 colon): 0.338 µM
TGI (HCT-116 colon): 1.56 µM
GI50 (UO-31 renal): 2.4 µM
TGI (UO-31 renal): > 100 µM
GI50 (ACHN renal): 2.32 µM
TGI (ACHN renal): 9.64 µM
GI50 (SF-268 CNS): 0.427 µM
TGI (SF-268 CNS): 7.33 µM
GI50 (HT29 colon): 0.377 µM
TGI (HT29 colon): 1.41 µM
GI50 (MALME-3M melanoma): 0.714 µM
TGI (MALME-3M melanoma): 2.43 µM
GI50 (786-0 renal): 0.997 µM
TGI (786-0 renal): 5.77 µM
GI50 (PC-3 prostate): 0.39 µM
TGI (PC-3 prostate): 8.21 µM
GI50 (KM12 colon): 0.433 µM
TGI (KM12 colon): 2.28 µM
GI50 (IGROV1 ovarian): 0.659 µM
TGI (IGROV1 ovarian): > 100 µM
GI50 (M14 melanoma): 0.288 µM
TGI (M14 melanoma): 1.25 µM
GI50 (SNB-75 CNS): 3.05 µM
TGI (SNB-75 CNS): > 100 µM
GI50 (T-47D breast): 0.884 µM
TGI (T-47D breast): 16 µM
GI50 (NCI-H460 lung): 0.329 µM
TGI (NCI-H460 lung): 10.5 µM
GI50 (EKVX NSCLC): 1.36 µM
TGI (EKVX NSCLC): > 100 µM
GI50 (NCI-H226 lung): 0.809 µM
TGI (NCI-H226 lung): 6.48 µM
GI50 (UACC-62 melanoma): 0.555 µM
TGI (UACC-62 melanoma): 2.32 µM
GI50 (HOP-62 NSCLC): 0.697 µM
TGI (HOP-62 NSCLC): 23.1 µM
GI50 (SR leukemia): 0.299 µM
TGI (SR leukemia): 2.62 µM
GI50 (SW-620 colon): 0.43 µM
TGI (SW-620 colon): > 100 µM
GI50 (SF-539 CNS): 0.253 µM
TGI (SF-539 CNS): 0.957 µM
GI50 (SN12C renal): 0.509 µM
TGI (SN12C renal): > 100 µM
GI50 (OVCAR-8 ovarian): 0.491 µM
TGI (OVCAR-8 ovarian): > 100 µM
GI50 (NCI/ADR-RES ovarian): > 100 µM
TGI (NCI/ADR-RES ovarian): > 100 µM
GI50 (BT-549 breast): 0.338 µM
TGI (BT-549 breast): 2.91 µM
GI50 (A498 renal): 0.336 µM
TGI (A498 renal): 2.83 µM
GI50 (CCRF-CEM leukemia): 0.336 µM
TGI (CCRF-CEM leukemia): > 100 µM
GI50 (A549 NSCLC): 1.75 µM
TGI (A549 NSCLC): 9.38 µM
GI50 (NCI-H522 lung): 0.306 µM
TGI (NCI-H522 lung): 2.94 µM
GI50 (HCT-15 colon): 2.12 µM
TGI (HCT-15 colon): 7 µM
GI50 (SNB-19 CNS): 0.73 µM
TGI (SNB-19 CNS): > 100 µM
GI50 (OVCAR-5 ovarian): 1.03 µM
TGI (OVCAR-5 ovarian): 9.82 µM
GI50 (SF-295 CNS): 0.354 µM
TGI (SF-295 CNS): 1.7 µM
GI50 (MOLT-4 leukemia): 0.356 µM
TGI (MOLT-4 leukemia): 3.54 µM
GI50 (SK-MEL-2 melanoma): 0.738 µM
TGI (SK-MEL-2 melanoma): 4 µM

COc1ccc(OC)c([N+](=O)[O-])c1-c1nc2sc(C)c(C)n2c1/C=N/N=C(N)N
TGI (RPMI-8226 leukemia): 89.9 µM
TGI (HOP-92 NSCLC): > 100 µM
TGI (U251 CNS): > 100 µM
TGI (MCF7 breast): 79.5 µM
TGI (LOX IMVI melanoma): > 100 µM
TGI (SK-MEL-5 melanoma): > 100 µM
TGI (HS 578T breast): > 100 µM
TGI (HL-60(TB) leukemia): 64.9 µM
TGI (OVCAR-4 ovarian): > 100 µM
TGI (RXF 393 renal): > 100 µM
TGI (OVCAR-3 ovarian): > 100 µM
TGI (UACC-257 melanoma): > 100 µM
TGI (DU-145 prostate): > 100 µM
TGI (HCC-2998 colon): > 100 µM
TGI (NCI-H23 lung): > 100 µM
TGI (MDA-MB-435): > 100 µM
TGI (MDA-MB-231 breast): > 100 µM
TGI (SK-MEL-28 melanoma): > 100 µM
TGI (TK-10 renal): > 100 µM
TGI (HCT-116 colon): > 100 µM
TGI (UO-31 renal): > 100 µM
TGI (ACHN renal): > 100 µM
TGI (SF-268 CNS): > 100 µM
TGI (HT29 colon): > 100 µM
TGI (MALME-3M melanoma): > 100 µM
TGI (786-0 renal): > 100 µM
TGI (PC-3 prostate): > 100 µM
TGI (KM12 colon): 50.9 µM
TGI (IGROV1 ovarian): > 100 µM
TGI (M14 melanoma): > 100 µM
TGI (CAKI-1 renal): > 100 µM
TGI (T-47D breast): 61.2 µM
TGI (NCI-H460 lung): > 100 µM
TGI (EKVX NSCLC): > 100 µM
TGI (NCI-H226 lung): > 100 µM
TGI (UACC-62 melanoma): > 100 µM
TGI (COLO 205 colon): > 100 µM
TGI (HOP-62 NSCLC): > 100 µM
TGI (SR leukemia): > 100 µM
TGI (SW-620 colon): > 100 µM
TGI (SF-539 CNS): > 100 µM
TGI (SN12C renal): > 100 µM
TGI (OVCAR-8 ovarian): > 100 µM
TGI (NCI/ADR-RES ovarian): > 100 µM
TGI (BT-549 breast): 57.7 µM
TGI (A498 renal): > 100 µM
TGI (CCRF-CEM leukemia): > 100 µM
TGI (A549 NSCLC): > 100 µM
TGI (NCI-H522 lung): > 100 µM
TGI (HCT-15 colon): > 100 µM
TGI (SNB-19 CNS): > 100 µM
TGI (OVCAR-5 ovarian): > 100 µM
TGI (SF-295 CNS): > 100 µM
TGI (MOLT-4 leukemia): 40.4 µM
TGI (SK-MEL-2 melanoma): 40.5 µM
TGI (K-562 leukemia): > 100 µM
